PMC4114755, “Identification of Polyketide Inhibitors Targeting 3-Dehydroquinate Dehydratase in the Shikimate Pathway of Enterococcus faecalis” (PLoS ONE, 2014)

B1: efDHQase (3-dehydroquinate dehydratase from Enterococcus faecalis; also DEF) (Enterococcus faecalis V583) (protein)
chain: MKPVIVKNVRIGEGNPKIVVPIVAPTAEDILAEATASQTLDCDLVEWRLDYYENVADFSDVCNLSQQVMERLGQKPLLLTFRTQKEGGEMAFSEENYFALYHELVKKGALDLLDIELFANPLAADTLIHEAKKAGIKIVLCNHDFQKTPSQEEIVARLRQMQMRQADICKIAVMPQDATDVLTLLSATNEMYTHYASVPIVTMSMGQLGMISRVTGQLFGSALTFGSAQQASAPGQLSVQVLRNYLKTFEQNK
notes: full-length aroD in modified pET-15b, N-terminal 10xHis tag removed with thrombin; expressed in E. coli aroD- pTara; homodimer; catalytic Lys170

Each molecule was assayed against T1, efDHQase (3-dehydroquinate dehydratase from Enterococcus faecalis; also DEF) (Enterococcus faecalis, UniProt P36923) (assay: efSHD-coupled NADPH oxidation assay, […] nm). Details: not given.
T1 construct: gene aroD; full-length aroD in modified pET-15b, N-terminal 10xHis tag removed with thrombin; expressed in E. coli aroD- pTara; homodimer; catalytic Lys170
T1 sequence (P36923 1-253): B1 chain
Assay type: biochemical
`O=c1ccc2ccc(O)cc2o1` [7-Hydroxycoumarin] gave a Ki of 42 ± 19 µM.
With `O=c1ccc2cc(O[C@@H]3O[C@H](CO)[C@@H](O)[C@H](O)[C@H]3O)c(O)cc2o1` [Aesculine] the Ki was 180 ± 38 µM.
Molecule `O=c1c(O)c(-c2ccc(O)c(O)c2)oc2c(O[C@@H]3O[C@H](CO)[C@@H](O)[C@H](O)[C@H]3O)c(O)cc(O)c12` [Gossypin] has a Ki of 79 ± 14 µM.
`O=c1cc(-c2ccc(O)c(O)c2)oc2cc(O)c([C@@H]3O[C@H](CO)[C@@H](O)[C@H](O)[C@H]3O)c(O)c12` [Homoorientin] was tested, and the Ki was 140 ± 11 µM.
`O=c1cc(-c2ccc(O)c(O[C@@H]3O[C@H](CO)[C@@H](O)[C@H](O)[C@H]3O)c2)oc2cc(O[C@@H]3O[C@H](CO)[C@@H](O)[C@H](O)[C@H]3O)cc(O)c12` [Luteolin-3′-7-diglucoside] was tested, and the Ki was 89 ± 3 µM.
`O=c1cc(-c2ccc(O)c(O)c2)oc2cc(O[C@@H]3O[C@H](CO)[C@@H](O)[C@H](O)[C@H]3O)cc(O)c12` [Luteolin-7-glucoside] was tested, and the Ki was 69 ± 16 µM.
`O=C(/C=C/c1ccc(O)c(O)c1)c1ccc(O[C@@H]2O[C@H](CO)[C@@H](O)[C@H](O)[C@H]2O)c(O)c1O` [Marein] was tested, and the Ki was 340 ± 79 µM.
Molecule `C[C@@H]1O[C@@H](O[C@H]2[C@H](Oc3cc(O)c4c(=O)cc(-c5ccc(O)cc5)oc4c3)O[C@H](CO)[C@@H](O)[C@@H]2O)[C@H](O)[C@H](O)[C@H]1O` [Rhoifolin] has a Ki of 19 ± 9 µM.
`C[C@@H]1O[C@@H](OC[C@H]2O[C@@H](Oc3c(-c4ccc(O)c(O)c4)oc4cc(O)cc(O)c4c3=O)[C@H](O)[C@@H](O)[C@@H]2O)[C@H](O)[C@H](O)[C@H]1O` [Rutin] showed a Ki of 210 ± 28 µM.

These molecules were tested on O=C1C[C@@](O)(C(=O)O)C[C@@H](O)[C@@H]1O (assay: purified protein). Details: 0.25 mM NADPH, 50 mM HEPES pH 7.5, 25°C, 10 nM efSHD as coupling enzyme.
Assay type: biochemical, Enterococcus faecalis
B1 was tested, and the Km was 65 µM and the kcat was 110 s⁻¹.
